Results: patent US20260176285A1, “SALT OF DIOXANE QUINOLINE COMPOUND, CRYSTAL FORM THEREOF, PREPARATION METHODS THEREFOR AND USES THEREOF” (Beijing Scitech-MQ Pharmaceuticals Limited, priority 2022, published 2026)
≈ marks a conversion by molar mass, not a printed value.

Legend:
[1] = Equilibrium solubility in water; assay type: physicochemical; settings: H2O, room temperature, 24 hours; listed as p-Toluenesulfonate salt crystal form B-III
Method: The sample was centrifuged and filtered, and the filtrate was tested by HPLC.

[2] = Hygroscopicity by dynamic moisture sorption (DVS); assay type: physicochemical; settings: for Moisture adsorption (25° C./80% RH) / Hygroscopicity: DVS
Method: Dynamic moisture sorption (DVS): The curves were collected on a DVS Intrinsic of SMS (Surface Measurement Systems). At 25° C., the humidity range was 0% RH-95% RH, the step was 10% (the last step was 5%), and the dm/dt was 0.002%/min.
The hygroscopicity of the free compound of formula (I), mucate salt crystal form A-I, p-toluenesulfonate salt crystal forms A-II and B-III, di-p-toluenesulfonate salt crystal form A-IV and phosphate salt crystal form A-V was evaluated by dynamic moisture sorption instrument (DVS). Starting from 0% relative humidity (0% RH), the test collected the mass change percentage of the samples under constant temperature of 25° C. with humidity changes (0% RH-95% RH-0% RH).

[3] = Solid-state stability evaluation (XRPD, HPLC); assay type: physicochemical
Method: The following 6 test samples were placed under 25° C./60% RH and 40° C./75% RH conditions for 1 week, and then the physical and chemical stability of the samples was tested by XRPD and HPLC.
At the same time, after the p-toluenesulfonate salt crystal form A-II and crystal form B-III solids were placed at 80° C. for 24 hours, the physical and chemical stability of the samples were tested by XRPD and HPLC.

[4] = Dynamic solubility in water, SGF, FaSSIF and FeSSIF; assay type: physicochemical; settings: for solubility at 1 h / solubility at 2 h / solubility at 4 h / solubility at 24 h: 37 °C, thermodynamic from solid
Method: Biological solvent Preparation • 1. […] 67.5 μL of concentrated hydrochloric acid (12 M) was added and the mixture was adjusted to a pH value of 1.8 with 1 M hydrochloric acid or 1 M NaOH solution. Purified water was added to make up to volume. • 2. Preparation of Fasted State Simulated Intestinal Fluid (FaSSIF): 0.17 g of anhydrous NaH2PO4, 0.021 g of NaOH, and 0.31 g of NaCl were weighed into a 50-mL volumetric flask. About 48 mL of purified water was added to dissolve the mixture completely, and the solution was adjusted to a pH value of 6.5 with 1 M hydrochloric acid or 1 M NaOH solution. Purified water was added to make up to volume. 0.11 g of SIF powder was added and dissolved completely. • 3. Preparation of Fed State Simulated Intestinal Fluid (FeSSIF): 0.41 mL of glacial acetic acid, 0.20 g of NaOH and 0.59 g of NaCl were weighed into a 50-mL volumetric flask. About 48 mL of purified water was added to dissolve the mixture completely, and the solution was adjusted to a pH value of 5.0 with 1 M hydrochloric acid or 1 M NaOH solution. Purified water was added to make up to volume. 0.56 g of SIF powder was added and dissolved completely.
The dynamic solubility of the free state, the mucate salt crystal form A-I, the p-toluenesulfonate salt crystal form A-II, the di-p-toluenesulfonate salt crystal form A-IV and the phosphate salt crystal form A-V of the compound of formula (I) in water and three biological solvents was evaluated.
The samples at each time point were centrifuged and filtered (0.45 μm PTFE filter head), and the HPLC concentration and pH value of the filtrate were determined.

[5] = test system: human lung cancer cells EBC-1; assay: Efficacy in nude mouse tumor-bearing model of human lung cancer cells EBC-1; assay type: in vivo, Balb/c nude mouse
Text: In this assay, the free compound of formula (I) of the present application and different salts of the compound prepared in Examples 1, 2 and 5 were orally administered to a nude mouse tumor-bearing model of human lung cancer cells EBC-1 to study their effects on tumor growth.
Preparation of test compounds: an appropriate weight of the test compound (including the free form of the compound of formula (I) and different salts of the compound prepared in Examples 1, 2 and 5) was weighed, completely suspended/dissolved in an appropriate volume of 0.1% sodium carboxymethyl cellulose, stirred and vortexed to give a uniform solution or suspension.
Methods: All assays were authorized by the Animal Welfare Committee. EBC-1 in the logarithmic growth phase was inoculated into immune-deficient nude mice (BALB/c nude, female, 6-8 weeks old, weighing 18±2 g), subcutaneously on the right back, with a cell inoculation amount of 5×10^6/mouse. After the tumor grew to 150-200 mm^3, the animals were randomly divided into groups, 6 mice per group. The dose of each test substance was set at 15 mg/kg and 7.5 mg/kg (both based on the concentration of the effective formula (I) compound), and administered once a day for about 3 weeks. The test compounds were freshly prepared each day before use. During the assay, the tumor diameter was measured twice a week, and the mice were weighed at the same time. The calculation formula of tumor volume (TV) is: TV=1/2×a×b^2, where a and b represent length and width, respectively. The relative tumor volume (RTV) was calculated based on the measurement results, and the calculation formula is: RTV=Vt/V0, wherein V0 is the tumor volume measured at the time of cage grouping and dosing initiation (i.e., d0), and Vt is the tumor volume at each measurement. The evaluation index of antitumor activity is the relative tumor proliferation rate T/C (%), calculated as follows: T/C (%)=(TRTV/CRTV)×100%, TRTV: RTV of the treatment group; CRTV: RTV of the negative control group. T and C represent the average tumor volume at a certain time point in the drug administration group and the control group, respectively.

[6] = 40° C./75% RH, 1 week, listed as p-Toluenesulfonate salt crystal form B-III
[7] = 80° C., 24 hours, listed as p-Toluenesulfonate salt crystal form B-III
[8] = pH 1.8, simulated gastric fluid

O=C(Nc1ccc(F)cc1)C1(C(=O)Nc2ccc(Oc3ccnc4cc(OCCCN5CCOCC5)c5c(c34)OCCO5)c(F)c2)CC1 [Example 3, N-(3-fluoro-4-((5-(3-morpholinopropoxy)-2,3-dihydro-[1,4]dioxano[2,3-f]quinolin-10-yl)oxy)phenyl)-N-(4-fluorophenyl)cyclopropane-1,1-dicarboxamide]
Solubility (equilibrium) [1]: 1300 µg/mL
Moisture adsorption (25° C./80% RH) ([2]; listed as p-Toluenesulfonate salt crystal form B-III): 3.13%
Hygroscopicity ([2]; 25° C., listed as p-Toluenesulfonate salt crystal form B-III): Hygroscopic
Purity ([3]; 25° C./60% RH, 1 week, listed as p-Toluenesulfonate salt crystal form B-III): 99.68 area %
Purity [3, 6]: 99.63 area %
Purity/initial purity [3, 6]: 99.8%
Change of Crystal form ([3]; 80° C., 24 hours): no
Purity [3, 7]: 99.56 area %
Purity/initial purity [3, 7]: 99.8%
Purity ([3]; Starting, listed as p-Toluenesulfonate salt crystal form B-III): 99.79 area %

O=C(Nc1ccc(F)cc1)C1(C(=O)Nc2ccc(Oc3ccnc4cc(OCCCN5CCOCC5)c5c(c34)OCCO5)c(F)c2)CC1 [Free state, N-(3-fluoro-4-((5-(3-morpholinopropoxy)-2,3-dihydro-[1,4]dioxano[2,3-f]quinolin-10-yl)oxy)phenyl)-N-(4-fluorophenyl)cyclopropane-1,1-dicarboxamide]
S (dynamic solubility) [4]: <LOQ
solubility at 1 h [4, 8]: 5700 µg/mL (≈ 8630 µM)
solubility at 2 h [4, 8]: 5800 µg/mL (≈ 8780 µM)
solubility at 4 h [4, 8]: 5700 µg/mL (≈ 8630 µM)
solubility at 24 h [4, 8]: 5700 µg/mL (≈ 8630 µM)
solubility at 1 h ([4]; pH 5, fessif): 640 µg/mL (≈ 969 µM)
solubility at 2 h ([4]; pH 5, fessif): 710 µg/mL (≈ 1070 µM)
solubility at 4 h ([4]; pH 5, fessif): 710 µg/mL (≈ 1070 µM)
solubility at 24 h ([4]; pH 5, fessif): 760 µg/mL (≈ 1150 µM)
solubility at 1 h ([4]; pH 6.5, fassif): 1.8 µg/mL (≈ 2.72 µM)
solubility at 2 h ([4]; pH 6.5, fassif): 1.9 µg/mL (≈ 2.88 µM)
solubility at 4 h ([4]; pH 6.5, fassif): 2.1 µg/mL (≈ 3.18 µM)
solubility at 24 h ([4]; pH 6.5, fassif): 2.5 µg/mL (≈ 3.78 µM)
pH of the filtrate ([4]; FaSSIF, 1 hour): 6.4
pH of the filtrate ([4]; FaSSIF, 2 hours): 6.4
pH of the filtrate ([4]; FaSSIF, 4 hours): 6.4
pH of the filtrate ([4]; FaSSIF, 24 hours): 6.4
pH of the filtrate ([4]; FeSSIF, 1 hour): 4.9
pH of the filtrate ([4]; FeSSIF, 2 hours): 5.0
pH of the filtrate ([4]; FeSSIF, 4 hours): 5.0
pH of the filtrate ([4]; FeSSIF, 24 hours): 5.0
pH of the filtrate ([4]; H2O, 1 hour): 6.7
pH of the filtrate ([4]; H2O, 2 hours): 5.5
pH of the filtrate ([4]; H2O, 4 hours): 6.7
pH of the filtrate ([4]; H2O, 24 hours): 7.8
pH of the filtrate ([4]; SGF, 1 hour): 3.6
pH of the filtrate ([4]; SGF, 2 hours): 3.7
pH of the filtrate ([4]; SGF, 4 hours): 3.7
pH of the filtrate ([4]; SGF, 24 hours): 3.8
Whether the crystal form changes after DVS test ([2]; 0% RH-95% RH-0% RH, 25° C.): no
Hygroscopicity ([2]; 25° C.): Almost no
Moisture adsorption (25° C./80% RH) [2]: 0.11%
Change of Crystal form ([3]; 25° C./60% RH, 1 week): no
Purity ([3]; 25° C./60% RH, 1 week): 99.36 area %
Purity/initial purity ([3]; 25° C./60% RH, 1 week): 99.9%
Change of Crystal form ([3]; 40° C./75% RH, 1 week): no
Purity ([3]; 40° C./75% RH, 1 week): 99.39 area %
Purity/initial purity ([3]; 40° C./75% RH, 1 week): 99.9%
Change of Crystal form ([3]; Starting): no
Purity ([3]; Starting): 99.44 area %
T/C (relative tumor proliferation rate) ([5]; 7.5 mg/kg oral once a day, day 3): 80.2%
T/C (relative tumor proliferation rate) ([5]; 7.5 mg/kg oral once a day, day 7): 68.3%
T/C (relative tumor proliferation rate) ([5]; 7.5 mg/kg oral once a day, day 10): 77.9%
T/C (relative tumor proliferation rate) ([5]; 7.5 mg/kg oral once a day, day 14): 69.3%
T/C (relative tumor proliferation rate) ([5]; 7.5 mg/kg oral once a day, day 18): 81.3%
T/C (relative tumor proliferation rate) ([5]; 7.5 mg/kg oral once a day, day 21): 70.68%
T/C (relative tumor proliferation rate) ([5]; 15 mg/kg oral once a day, day 3): 88.8%
T/C (relative tumor proliferation rate) ([5]; 15 mg/kg oral once a day, day 7): 76.9%
T/C (relative tumor proliferation rate) ([5]; 15 mg/kg oral once a day, day 10): 80.4%
T/C (relative tumor proliferation rate) ([5]; 15 mg/kg oral once a day, day 14): 66.4%
T/C (relative tumor proliferation rate) ([5]; 15 mg/kg oral once a day, day 18): 72.2%
T/C (relative tumor proliferation rate) ([5]; 15 mg/kg oral once a day, day 21): 64.60%
